Tests used:
human AT1 receptor = molecular target: T1, human AT1 receptor (Homo sapiens, UniProt P30556); experiment: AT1 receptor antagonistic activity: [125I]-angiotensin II binding assay on human AT1 receptor-expressing CHO-K1 cellular membrane fraction; details: 22.5 pM [125I]-angiotensin II, 1 hr room temperature
T1 construct: expressed in transfected cells; membrane fraction
T1 sequence (P30556 1-359): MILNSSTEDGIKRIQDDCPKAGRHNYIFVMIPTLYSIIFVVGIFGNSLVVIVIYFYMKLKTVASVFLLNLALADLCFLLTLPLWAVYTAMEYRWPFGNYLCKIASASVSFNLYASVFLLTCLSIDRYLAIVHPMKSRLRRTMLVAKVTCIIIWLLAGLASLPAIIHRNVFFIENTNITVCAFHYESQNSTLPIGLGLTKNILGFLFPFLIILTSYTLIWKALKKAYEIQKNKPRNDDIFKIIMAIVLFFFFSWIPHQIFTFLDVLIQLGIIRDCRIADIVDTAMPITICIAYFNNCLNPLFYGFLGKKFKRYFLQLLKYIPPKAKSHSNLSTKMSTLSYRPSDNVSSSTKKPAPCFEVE
Summary of the method: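 Competition binding used radiolabelled angiotensin II on stably transfected CHO-K1 membrane fractions in Tris pH 7.4/MgCl2 buffer, optionally containing 0.3 mg/mL fatty acid-free BSA, 1 hr at room temperature. Filtration onto GF/C separated bound tracer, and nonspecific binding was measured with candesartan.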

human PPARγ = molecular target: T2, human PPARγ (Homo sapiens, UniProt P37231); experiment: PPARγ agonistic activity: luciferase reporter assay in PPARγ:RXRα:4ERPP/CHO-K1 cells; format: cell-based; details: CHO-K1, test compound 10^−6 M; luciferase activity of control compound X (1 μM) = 100%, non-administration group = 0%
T2 construct: expressed in transfected cells
T2 sequence (P37231 1-477 isoform P37231-2): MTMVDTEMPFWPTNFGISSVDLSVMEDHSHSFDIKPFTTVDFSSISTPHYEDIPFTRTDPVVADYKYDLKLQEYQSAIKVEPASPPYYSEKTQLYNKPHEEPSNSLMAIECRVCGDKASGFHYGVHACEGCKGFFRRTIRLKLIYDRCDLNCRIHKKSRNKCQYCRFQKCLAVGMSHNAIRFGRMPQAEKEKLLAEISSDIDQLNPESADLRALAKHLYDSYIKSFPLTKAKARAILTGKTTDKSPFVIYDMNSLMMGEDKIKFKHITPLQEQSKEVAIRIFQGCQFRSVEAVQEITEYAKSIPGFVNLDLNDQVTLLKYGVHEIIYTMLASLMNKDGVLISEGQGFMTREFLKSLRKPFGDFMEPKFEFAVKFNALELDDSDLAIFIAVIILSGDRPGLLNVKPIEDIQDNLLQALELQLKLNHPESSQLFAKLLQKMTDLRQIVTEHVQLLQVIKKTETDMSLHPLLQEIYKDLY
T2 sequence (P19793 1-462 partner): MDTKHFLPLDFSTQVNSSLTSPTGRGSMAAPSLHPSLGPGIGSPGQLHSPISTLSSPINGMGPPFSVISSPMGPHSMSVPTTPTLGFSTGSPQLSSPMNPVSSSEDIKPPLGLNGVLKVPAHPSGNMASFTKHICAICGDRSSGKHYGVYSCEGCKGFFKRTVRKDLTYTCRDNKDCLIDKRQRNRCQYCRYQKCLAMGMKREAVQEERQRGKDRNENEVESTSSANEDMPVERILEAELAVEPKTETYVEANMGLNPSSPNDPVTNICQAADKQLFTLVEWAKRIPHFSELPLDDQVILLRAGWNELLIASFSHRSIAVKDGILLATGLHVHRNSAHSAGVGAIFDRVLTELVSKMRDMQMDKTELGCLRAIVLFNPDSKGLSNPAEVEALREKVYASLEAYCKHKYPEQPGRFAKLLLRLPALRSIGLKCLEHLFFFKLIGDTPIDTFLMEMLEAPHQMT
Summary of the method: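 CHO-K1 cells stably carrying hPPARγ/RXRα and a 4ERPP luciferase reporter, dosed with test compound for 1 day at 37 °C in Ham's F12 with 0.1% fatty acid-free BSA. Luciferase read by luminescence; activity given as % of 1 μM control compound X (100%) versus untreated (0%).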

IC50 (human AT1 receptor) | activation at 1 µM (human PPARγ) | SMILES
2.7 nM | 27% | CCCc1c(Cc2ccc(-c3ccccc3-c3noc(=O)[nH]3)cc2)c(=O)n([C@H]2CC[C@@]3(CC2)CC(C)=NO3)c2ncnn12 [Example 205, 4-[(5S,8S)-3-methyl-1-oxa-2-azaspiro[4.5]dec-2-en-8-yl]-6-{[2′-(5-oxo-4,5-dihydro-1,2,4-oxadiazol-3-yl)biphenyl-4-yl]methyl}-7-propyl[1,2,4]triazolo[1,5-a]pyrimidin-5(4H)-one]
2.2 nM | 23% | CCCCc1c(Cc2ccc(-c3ccccc3-c3noc(=O)[nH]3)cc2)c(=O)n([C@H]2CC[C@H](OC(C)C(C)(C)O)CC2)c2ncnn12 (stereo partly drawn) [Example 206, 7-butyl-4-[trans-4-(2-hydroxy-1,2-dimethylpropoxy)cyclohexyl]-6-{[2′-(5-oxo-4,5-dihydro-1,2,4-oxadiazol-3-yl)biphenyl-4-yl]methyl}[1,2,4]triazolo[1,5-a]pyrimidin-5(4H)-one]
2.5 nM | 41% | CCCc1c(Cc2ccc(-c3ccccc3-c3noc(=O)[nH]3)cc2)c(=O)n([C@H]2CC[C@H](c3cnco3)CC2)c2ncnn12 [Example 184, 4-[trans-4-(1,3-oxazol-5-yl)cyclohexyl]-6-{[2′-(5-oxo-4,5-dihydro-1,2,4-oxadiazol-3-yl)biphenyl-4-yl]methyl}-7-propyl[1,2,4]triazolo[1,5-a]pyrimidin-5(4H)-one]
1.8 nM | 32% | CCCCc1c(Cc2ccc(-c3ccccc3-c3noc(=O)[nH]3)cc2)c(=O)n([C@H]2CC[C@H](OCC(C)O)CC2)c2ccnn12 (relative stereo) [Example 436, 7-butyl-4-[trans-4-(2-hydroxypropoxy)cyclohexyl]-6-{[2′-(5-oxo-4,5-dihydro-1,2,4-oxadiazol-3-yl)biphenyl-4-yl]methyl}pyrazolo[1,5-a]pyrimidin-5(4H)-one]
2.2 nM | 25% | CCCc1c(Cc2ccc(-c3ccccc3-c3noc(=O)[nH]3)cc2F)c(=O)n([C@H]2C[C@H](OCC(C)(C)O)C2)c2ncnn12 [Example 367, 6-{[3-fluoro-2′-(5-oxo-4,5-dihydro-1,2,4-oxadiazol-3-yl)biphenyl-4-yl]methyl}-4-[trans-3-(2-hydroxy-2-methylpropoxy)cyclobutyl]-7-propyl[1,2,4]triazolo[1,5-a]pyrimidin-5(4H)-one]
2.1 nM | 25% | CCCCc1c(Cc2ccc(-c3ccccc3-c3noc(=O)[nH]3)cc2)c(=O)n([C@H]2CC[C@H](OCC(C)(C)O)CC2)c2ccnn12 [Example 434, 7-butyl-4-[trans-4-(2-hydroxy-2-methylpropoxy)cyclohexyl]-6-{[2′-(5-oxo-4,5-dihydro-1,2,4-oxadiazol-3-yl)biphenyl-4-yl]methyl}pyrazolo[1,5-a]pyrimidin-5(4H)-one]
1.7 nM | 18% | CCCc1c(Cc2ccc(-c3ccccc3-c3noc(=O)[nH]3)cc2)c(=O)n(Cc2ccc(F)cc2)c2nc(C)nn12 [Example 5, 4-(4-fluorobenzyl)-2-methyl-6-{[2′-(5-oxo-4,5-dihydro-1,2,4-oxadiazol-3-yl)biphenyl-4-yl]methyl}-7-propyl[1,2,4]triazolo[1,5-a]pyrimidin-5(4H)-one]
2.8 nM | 29% | CCCc1c(Cc2ccc(-c3ccccc3-c3noc(=O)[nH]3)cc2F)c(=O)n([C@H]2CC[C@H](OC(C)C(O)(CF)CF)CC2)c2ncnn12 (stereo partly drawn) [Example 364, 4-{trans-4-[3-fluoro-2-(fluoromethyl)-2-hydroxy-1-methylpropoxy]cyclohexyl}-6-{[3-fluoro-2′-(5-oxo-4,5-dihydro-1,2,4-oxadiazol-3-yl)biphenyl-4-yl]methyl}-7-propyl[1,2,4]triazolo[1,5-a]pyrimidin-5(4H)-one]
2.5 nM | 35% | CCCc1c(Cc2ccc(-c3ccccc3-c3noc(=O)[nH]3)cc2F)c(=O)n([C@H]2CC[C@H](OC(C)C#N)CC2)c2nc(C)nn12 (stereo partly drawn) [Example 249, 2-({trans-4-[6-{[3-fluoro-2′-(5-oxo-4,5-dihydro-1,2,4-oxadiazol-3-yl)biphenyl-4-yl]methyl}-2-methyl-5-oxo-7-propyl[1,2,4]triazolo[1,5-a]pyrimidin-4(5H)-yl]cyclohexyl}oxy)propanenitrile]
2.2 nM | 21% | CCCc1c(Cc2ccc(-c3ccccc3-c3noc(=O)[nH]3)cc2)c(=O)n([C@H]2CC[C@H](OCC(C)=O)CC2)c2ccnn12 [Example 420, 6-{[2′-(5-oxo-4,5-dihydro-1,2,4-oxadiazol-3-yl)biphenyl-4-yl]methyl}-4-[trans-4-(2-oxopropoxy)cyclohexyl]-7-propylpyrazolo[1,5-a]pyrimidin-5(4H)-one]
1.9 nM | 33% | CCCc1c(Cc2ccc(-c3ccccc3-c3noc(=O)[nH]3)cc2)c(=O)n([C@H]2CC[C@H](OCC#N)CC2)c2ncnn12 [Example 210, ({trans-4-[5-oxo-6-{[2′-(5-oxo-4,5-dihydro-1,2,4-oxadiazol-3-yl)biphenyl-4-yl]methyl}-7-propyl[1,2,4]triazolo[1,5-a]pyrimidin-4(5H)-yl]cyclohexyl}oxy)acetonitrile]
2.1 nM | 25% | CCCc1c(Cc2ccc(-c3ccccc3-c3noc(=O)[nH]3)cc2)c(=O)n(C2C=CCCC2)c2nc(C)nn12 (stereo not shown) [Example 74, 4-(cyclohex-2-en-1-yl)-2-methyl-6-{[2′-(5-oxo-4,5-dihydro-1,2,4-oxadiazol-3-yl)biphenyl-4-yl]methyl}-7-propyl[1,2,4]triazolo[1,5-a]pyrimidin-5(4H)-one]
1.3 nM | 26% | CCCCc1c(Cc2ccc(-c3ccccc3-c3noc(=O)[nH]3)cc2)c(=O)n(C2CCOC(C)(C)C2)c2ncnn12 (stereo not shown) [Example 134, 7-butyl-4-(2,2-dimethyltetrahydro-2H-pyran-4-yl)-6-{[2′-(5-oxo-4,5-dihydro-1,2,4-oxadiazol-3-yl)biphenyl-4-yl]methyl}[1,2,4]triazolo[1,5-a]pyrimidin-5(4H)-one]
1.8 nM | 18% | CCCc1c(Cc2ccc(-c3ccccc3-c3noc(=O)[nH]3)cc2)c(=O)n(CC(=O)C(C)(C)C)c2ncnn12 [Example 10, 4-(3,3-dimethyl-2-oxobutyl)-6-{[2′-(5-oxo-4,5-dihydro-1,2,4-oxadiazol-3-yl)biphenyl-4-yl]methyl}-7-propyl[1,2,4]triazolo[1,5-a]pyrimidin-5(4H)-one]
2 nM | 31% | CCCc1c(Cc2ccc(-c3ccccc3-c3noc(=O)[nH]3)cc2)c(=O)n([C@H]2CC[C@H](OCC(O)C(F)(F)F)CC2)c2ncnn12 (stereo partly drawn) [Example 325, 6-{[2′-(5-oxo-4,5-dihydro-1,2,4-oxadiazol-3-yl)biphenyl-4-yl]methyl}-7-propyl-4-[trans-4-(3,3,3-trifluoro-2-hydroxypropoxy)cyclohexyl][1,2,4]triazolo[1,5-a]pyrimidin-5(4H)-one]

SMILES | IC50 (human AT1 receptor) | activation at 1 µM (human PPARγ)
CCCc1c(Cc2ccc(-c3ccccc3-c3noc(=O)[nH]3)cc2)c(=O)n([C@H]2C[C@H](OCC(O)(CC)CC)C2)c2ncnn12 [Example 259, 4-[trans-3-(2-ethyl-2-hydroxybutoxy)cyclobutyl]-6-{[2′-(5-oxo-4,5-dihydro-1,2,4-oxadiazol-3-yl)biphenyl-4-yl]methyl}-7-propyl[1,2,4]triazolo[1,5-a]pyrimidin-5(4H)-one] | 2.3 nM | 28%
CCCc1c(Cc2ccc(-c3ccccc3-c3noc(=O)[nH]3)cc2)c(=O)n([C@H]2CC[C@H](OCC(O)CC)CC2)c2ncnn12 (stereo partly drawn) [Example 326, 4-[trans-4-(2-hydroxybutoxy)cyclohexyl]-6-{[2′-(5-oxo-4,5-dihydro-1,2,4-oxadiazol-3-yl)biphenyl-4-yl]methyl}-7-propyl[1,2,4]triazolo[1,5-a]pyrimidin-5(4H)-one] | 1.8 nM | 29%

From US8283353B2, “Fused ring compound and use thereof” (Takeda Pharmaceutical Company Limited, priority 2009, dated 2012)
